This passage reports GI50 and TGI results from PubChem BioAssay (NCI).

Among the test systems are NCI-H522 lung; SW-620 colon; K-562 leukemia; HT29 colon; SN12C renal; RPMI-8226 leukemia; SNB-19 CNS; MDA-MB-435; U251 CNS; A549 NSCLC.
Experiment in all cases: growth of human tumour cells (NCI), 48 h

Where “and” joins values, the source holds several entries; their conditions need not be identical. Equal values may be shown once.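 Following 48 hours of exposure in 96-well plates, responses at five concentrations were used to interpolate endpoints linearly. GI50 is the concentration that inhibits growth by half. At the TGI there is no net growth.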

On to `Cn1cc(C2=C(c3cn(CCCCN)c4ccccc34)C(=O)NC2=O)c2ccccc21`, for which the GI50 with NCI-H522 lung, in the test on SW-620 colon, in the test on K-562 leukemia, with HT29 colon, in the test with SN12C renal and with RPMI-8226 leukemia was above 25 µM throughout. For the same compound, the GI50 in the test with SNB-19 CNS is above 25 µM; in the test on MDA-MB-435, above 25 µM; in the test with U251 CNS it was above 25 µM; in the test on A549 NSCLC it was above 25000 nM. Moreover, the TGI with NCI-H522 lung, in the test with SW-620 colon, in the test with K-562 leukemia, in the test on HT29 colon, in the test with SN12C renal and in the test with RPMI-8226 leukemia was above 25 µM throughout. The TGI with SNB-19 CNS, with MDA-MB-435, in the test with U251 CNS and in the test on A549 NSCLC was above 25 µM in each case.

For the compound `Oc1[nH]c2ccccc2c1N=Nc1ccccn1`, the TGI is 78.8 µM with NCI-H522 lung; above 100 µM in the test with SW-620 colon; above 100 µM in the test on K-562 leukemia; 55.5 µM in the test on HT29 colon; above 100 µM in the test with SN12C renal; above 100 µM in the test on RPMI-8226 leukemia. For the same compound, the TGI is above 100 µM in the test on SNB-19 CNS, above 100 µM in the test with MDA-MB-435, 46.6 µM in the test on U251 CNS and above 100 µM in the test with A549 NSCLC.

Turning to `COC(=O)CCc1c[nH]c2ccc(N(CCCl)CCCl)cc12`, the GI50 is 1.79 µM in the test with NCI-H522 lung; 3.41 µM in the test with SW-620 colon; 9.68 µM in the test with K-562 leukemia; 2.3 µM with HT29 colon; 0.688 µM in the test with SN12C renal; 3.05 µM with RPMI-8226 leukemia. In addition, the GI50 with SNB-19 CNS was 3.43 µM; in the test with MDA-MB-435 it was 8.98 µM; in the test on U251 CNS, 1.31 µM; in the test with A549 NSCLC it was 1510 nM. Further, the TGI in the test on NCI-H522 lung was 6.02 µM; with SW-620 colon, 37 µM; with K-562 leukemia, above 100 µM; in the test with HT29 colon it was 44.7 µM; in the test on SN12C renal, 36.4 µM; in the test with RPMI-8226 leukemia, above 55.9 µM. Also, the TGI with SNB-19 CNS is above 76.2 µM; in the test on MDA-MB-435, 25.9 µM; in the test with U251 CNS, 25.1 µM; in the test on A549 NSCLC, above 100 µM.

Take `C#Cc1cccc(N2C(=O)CCC2=O)c1`: the TGI with NCI-H522 lung was 11.9 µM; in the test with SW-620 colon it was 19.2 µM; with K-562 leukemia, 20.9 µM; in the test on HT29 colon, 34.2 µM; in the test with SN12C renal, 33.6 µM; in the test on RPMI-8226 leukemia, 15.9 µM. Further, the TGI in the test with SNB-19 CNS came to 48 µM; in the test with MDA-MB-435, 31.2 µM; with U251 CNS, 33 µM; with A549 NSCLC it was 42.7 µM.

Turning to `COc1ccc2c(C)cc(N/N=C/c3ccc(OC)c4ccccc34)nc2c1`, the TGI with NCI-H522 lung was found to be 26.7 µM; in the test with SW-620 colon, 22.2 µM; with K-562 leukemia, 32.3 µM; in the test with HT29 colon, 32.7 µM; in the test with SN12C renal it was 5.52 µM; in the test with RPMI-8226 leukemia, 8.64 µM. Moreover, the TGI in the test on SNB-19 CNS was determined as 41.9 µM; with MDA-MB-435, 24.1 µM; with U251 CNS, 13.2 µM; in the test on A549 NSCLC, 34.8 µM.

Turning to `Nc1ccccc1C(=O)CC1OC(=O)c2ccccc21` (stereo not drawn), the TGI with NCI-H522 lung, in the test with SW-620 colon, with K-562 leukemia, in the test with HT29 colon, with SN12C renal and in the test with RPMI-8226 leukemia was above 100 µM throughout. Besides, the TGI in the test on SNB-19 CNS, with MDA-MB-435, with U251 CNS and in the test on A549 NSCLC was above 100 µM in each case.

With `C=C1C(=O)O[C@H]2C[C@@H]1CC/C(C)=C/CC/C(C)=C/CC[C@H]2C`, the GI50 was 23.5 µM with NCI-H522 lung; 14.7 µM in the test with SW-620 colon; 14 µM in the test on K-562 leukemia; 28.3 µM in the test on HT29 colon; 20.6 µM in the test on SN12C renal; 5.46 µM in the test with RPMI-8226 leukemia. Also, the GI50 with SNB-19 CNS was 23.2 µM; in the test with MDA-MB-435, 7.51 µM; with U251 CNS, 14.6 µM; in the test with A549 NSCLC, 9730 nM. Further, the TGI is above 66.3 µM with NCI-H522 lung; 45.9 µM in the test with SW-620 colon; above 57.1 µM with K-562 leukemia; above 100 µM in the test with HT29 colon; 39 µM with SN12C renal; 13.9 µM in the test with RPMI-8226 leukemia. Also, the TGI with SNB-19 CNS turned out to be 55.2 µM; in the test on MDA-MB-435, 27.2 µM; in the test on U251 CNS, 28.3 µM; in the test with A549 NSCLC it was 33 µM.

Take `CCN(Cc1cccc(F)c1)c1ccc(CO)c(Cl)c1`: the GI50 is 19.2 µM in the test with NCI-H522 lung; 0.808 µM in the test on SW-620 colon; 3.54 µM with K-562 leukemia; 3.42 µM in the test with HT29 colon; 14.6 µM in the test on SN12C renal; 5.98 µM with RPMI-8226 leukemia. Further, the GI50 in the test with SNB-19 CNS was 21.8 µM; with MDA-MB-435, 18.2 µM; with U251 CNS it was 1.01 µM; with A549 NSCLC, 2310 nM. For the same compound, the TGI is 58.6 µM in the test with NCI-H522 lung; above 100 µM in the test with SW-620 colon; above 100 µM in the test on K-562 leukemia; above 51.4 µM with HT29 colon; above 50.5 µM in the test on SN12C renal; above 56 µM with RPMI-8226 leukemia. Besides, the TGI was above 92.6 µM in the test with SNB-19 CNS, 55.1 µM in the test on MDA-MB-435, 26.5 µM with U251 CNS and 35 µM with A549 NSCLC.

`CCOc1ccc2nc(SCc3nc4n(n3)S(=O)(=O)c3ccccc3N4C)sc2c1`: the GI50 in the test on NCI-H522 lung was 86.4 µM; in the test with SW-620 colon it was above 100 µM; in the test with K-562 leukemia, 71.2 µM; in the test with HT29 colon it was above 100 µM; in the test with SN12C renal it was above 100 µM; with RPMI-8226 leukemia, 31.5 µM. Moreover, the GI50 in the test with SNB-19 CNS is above 100 µM; in the test on MDA-MB-435, above 100 µM; in the test with U251 CNS it was 68.5 µM; with A549 NSCLC, above 100000 nM. Moreover, the TGI in the test on NCI-H522 lung, in the test on SW-620 colon, in the test on K-562 leukemia, in the test on HT29 colon, in the test on SN12C renal and with RPMI-8226 leukemia was above 100 µM in each case. Moreover, the TGI with SNB-19 CNS, in the test on MDA-MB-435, with U251 CNS and with A549 NSCLC was above 100 µM in each case.

Turning to `C=C1C(O)C2C(=C(CCc3ccccc3)C13CC3)C(=O)C(C)(CO)C2O` (stereo not drawn), the GI50 in the test on NCI-H522 lung was above 100 µM; with SW-620 colon, above 100 µM; in the test with K-562 leukemia it was above 100 µM; with HT29 colon it was above 100 µM; in the test on SN12C renal, above 100 µM; in the test on RPMI-8226 leukemia, 22.2 µM. For the same compound, the GI50 is above 100 µM with SNB-19 CNS, above 100 µM with MDA-MB-435, above 100 µM in the test on U251 CNS and above 100000 nM in the test with A549 NSCLC. The TGI is above 100 µM with NCI-H522 lung; above 100 µM in the test with SW-620 colon; above 100 µM with K-562 leukemia; above 100 µM with HT29 colon; above 100 µM in the test on SN12C renal; 70.2 µM in the test on RPMI-8226 leukemia. The TGI in the test on SNB-19 CNS, in the test on MDA-MB-435, in the test on U251 CNS and in the test on A549 NSCLC was above 100 µM throughout.

For the compound `O=C(CP(=O)(O)O)NC(CC(=O)OCc1ccccc1)C(=O)OCc1ccccc1` (stereo not drawn), the TGI in the test with NCI-H522 lung, in the test with SW-620 colon, in the test on K-562 leukemia, with HT29 colon, in the test with SN12C renal and with RPMI-8226 leukemia was above 100 µM each time. The TGI in the test with SNB-19 CNS, in the test on MDA-MB-435, in the test with U251 CNS and in the test on A549 NSCLC was above 100 µM in each case.

For the compound `CC(=O)OCC1OC(n2c(-c3ccc(Cl)cc3)ccc(C#N)c2=S)C(OC(C)=O)C(OC(C)=O)C1OC(C)=O` (stereo not drawn), the GI50 was 27.8 µM and 61.6 µM in the test with NCI-H522 lung; 14.8 µM and 42.2 µM in the test with SNB-19 CNS; 10.4 µM and 61.4 µM in the test with U251 CNS. In addition, the TGI with NCI-H522 lung, in the test on SW-620 colon, with K-562 leukemia, with HT29 colon, in the test on SN12C renal and with RPMI-8226 leukemia was above 100 µM in each case. Further, the TGI with SNB-19 CNS is 58.4 µM and > 100 µM; in the test on MDA-MB-435, above 100 µM; in the test with U251 CNS, 40 µM and > 100 µM; in the test with A549 NSCLC, above 100 µM.

`O=S(=O)(Nc1ccccc1Cl)c1ccc(-c2cnc(C3CC3)o2)cc1`: the GI50 in the test on NCI-H522 lung is 0.26 µM; in the test with SW-620 colon it was 0.312 µM; in the test with K-562 leukemia, 0.0845 µM; in the test on HT29 colon it was 0.331 µM; in the test on SN12C renal, 0.797 µM; in the test with RPMI-8226 leukemia, 0.541 µM. Also, the GI50 in the test with SNB-19 CNS is 0.642 µM; in the test with MDA-MB-435, 0.0552 µM; in the test on U251 CNS, 0.583 µM; in the test on A549 NSCLC, 867 nM. The TGI in the test with NCI-H522 lung is 15.6 µM; in the test on SW-620 colon, above 100 µM; in the test on K-562 leukemia, above 100 µM; in the test with HT29 colon, above 41.2 µM; with SN12C renal it was above 100 µM; with RPMI-8226 leukemia, 22.7 µM. The TGI in the test on SNB-19 CNS is above 100 µM; with MDA-MB-435 it was 0.388 µM; with U251 CNS, above 100 µM; with A549 NSCLC, 99.7 µM.
